Results from article PMC3637032 (Clinical Pharmacology : Advances and Applications, 2013).
Values belong to the compound of their own block, whether it stands above or below them.

Experiments:
hOCT-2 transporters = conditions: in vitro findings; ref data on file, Bristol-Myers Squibb, Princeton, NJ, USA; cited from earlier work
P-glycoprotein = conditions: apixaban: ref not given; famotidine: ref 20; cited from earlier work
[1] = Stability of apixaban in human plasma; assay type: in vitro ADME; conditions: at −20°C
[2] = cited from earlier work
[3] = compound lacks ionizable groups; cited from earlier work
[4] = assay type: in vivo, human
[5] = test system: breast cancer resistance protein; conditions: cited from earlier work
coagulation factor Xa = conditions: cited from earlier work
[6] = assay type: in vivo, human; remark: listed apart in the source
gastric pH = conditions: cited from earlier work
[7] = cited from earlier work; remark: listed apart in the source
hOCT-1 = conditions: cited from earlier work
[8] = test system: human organic cation transporter (hOCT)-3; conditions: cited from earlier work
hOCT-2 = conditions: cited from earlier work

Structure (SMILES): COc1ccc(-n2nc(C(N)=O)c3c2C(=O)N(c2ccc(N4CCCCC4=O)cc2)CC3)cc1 [Apixaban, 1-(4-methoxyphenyl)-7-oxo-6-(4-(2-oxopiperidin-1-yl)phenyl)-4,5,6,7-tetrahydro-1H-pyrazolo[3,4-c]pyridine-3-carboxamide]
hOCT-2 substrate (hOCT-2 transporters): not a substrate
P-glycoprotein substrate (P-glycoprotein): substrate
Stability in human plasma [1]: at least 589 days
Effect of food on apixaban exposure [2]: no relevant effect
Renal excretion as share of total clearance [2]: approximately 27%
Elimination half-life ([2]; clinical studies): approximately 12 hours
Oral bioavailability ([2]; clinical studies): approximately 50%
Aqueous solubility dependence on pH [3]: not affected by changes in pH
AUC(0-inf) ([4]; both, human, plasma, po, 10 mg): 2220 ng·h/mL
AUC(0-t) ([4]; both, human, plasma, po, 10 mg): 2190 ng·h/mL
Cmax ([4]; both, human, plasma, po, 10 mg): 230 ng/mL
half-life ([4]; both, human, plasma, po, 10 mg): 9.2 h
Predose period 2 apixaban concentration as fraction of Cmax ([4]; six subjects with measurable predose concentrations): < 1.5%
Breast cancer resistance protein substrate [5]: substrate
Factor Xa inhibition (description) (coagulation factor Xa): potent, reversible, direct, and highly selective inhibitor
Deaths, serious adverse events, discontinuations, bleeding-related adverse events ([6]; 18 healthy subjects, both treatment periods): No deaths, serious adverse events, discontinuations due to adverse events, or clinically relevant bleeding-related adverse events
Tolerability ([6]; apixaban 10 mg alone and with famotidine 40 mg, healthy subjects): well tolerated

Effect of coadministration on apixaban Cmax, AUC0–T, or AUC∞ ([4]; famotidine 40 mg 3 hours before apixaban 10 mg, healthy subjects): no effect
Structure (SMILES): NC(N)=Nc1nc(CSCCC(N)=NS(N)(=O)=O)cs1 [famotidine]
Time for gastric pH to return to baseline after cessation of administration (gastric pH): 10–12 hours
Time of maximal increases in gastric pH post-dose (gastric pH): 1–3 hours
Metabolism [7]: minimally metabolized
Potential for CYP-mediated drug–drug interactions [7]: minimal potential
Time of maximal plasma concentrations after oral administration [7]: 2 to 3 h
P-glycoprotein substrate (P-glycoprotein): substrate
Inhibition of hOCT-1 (hOCT-1): moderate inhibitor
Inhibition of hOCT-3 [8]: potent inhibitor
Inhibition of hOCT-2 (hOCT-2): moderate inhibitor
